Laboratory results published in patent US20030232860A1, “Medicine comprising dicyanopyridine derivative” (priority 2000, published 2003).
Counter-ions that a name gives are not always drawn.

Structure (SMILES)	melting point
COc1nc(N)c(C#N)c(-c2ccc(CN)cc2)c1C#N.Cl	> 300 °C
COc1nc(N)c(C#N)c(C2CCCNC2)c1C#N (stereo not shown)	176 to 178 °C
CSc1nc(N)c(C#N)c(-c2cccc(N)c2)c1C#N.Cl	277 to 278 °C
Cl.Cl.N#Cc1c(NCCN)nc(NCCN)c(C#N)c1-c1ccccc1	> 280 °C
Cl.Cl.N#Cc1c(N)nc(Sc2cccnc2)c(C#N)c1-c1cccc(N)c1	285 to 288 °C (dec.)
CN(C)c1cccc(-c2c(C#N)c(N)nc(SCc3cccnc3)c2C#N)c1.Cl.Cl	243 to 245 °C
COc1nc(N(C(=O)Oc2ccccc2)C(=O)Oc2ccccc2)c(C#N)c(-c2ccccc2F)c1C#N	156 to 158 °C
CSc1nc(N)c(C#N)c(-c2c[nH]cn2)c1C#N (as salt: HCl) (hydrate or solvate) [Example 82]	272 to 273 °C (dec.)
COc1nc(N)c(C#N)c(-c2ccnc(N)n2)c1C#N (as salt: HCl) (hydrate or solvate) [Example 174]	80 °C (dec.)
N#Cc1c(N)nc(OCc2cccnc2)c(C#N)c1-c1ccccc1 (as salt: HCl) (hydrate or solvate) [Example 208, 2-amino-4-phenyl-6-(pyridin-3-ylmethoxy)pyridine-3,5-dicarbonitrile]	174 to 175 °C
COc1nc(N)c(C#N)c(-c2ccc3cccnc3c2)c1C#N (as salt: HCl) [Example 172, 2-amino-6-methoxy-4-quinolin-7-ylpyridine-3,5-dicarbonitrile]	245 to 254 °C (dec.)
COc1nc(N)c(C#N)c(-c2ccc3nc[nH]c3c2)c1C#N (as salt: HCl) [Example 173]	299 to 300 °C
N#Cc1c(N)nc(Oc2ccccc2CN)c(C#N)c1-c1ccccc1 (as salt: HCl) [Example 201, 2-amino-6-(2-aminomethylphenoxy)-4-phenylpyridine-3,5-dicarbonitrile]	> 300 °C
N#Cc1c(N)nc(N2CCNCC2)c(C#N)c1-c1ccccc1 (as salt: HCl) [Example 210]	260 to 263 °C (dec.)
COc1nc(N)c(C#N)c(-c2cnc(N)s2)c1C#N (as salt: chloride) [Example 67, 2-amino-4-(2-aminothiazol-5-yl)-6-methoxypyridine-3,5-dicarbonitrile mono hydro chloride]	240 to 242 °C (dec.)
COc1nc(N)c(C#N)c(C2CCNCC2)c1C#N (as salt: hydrochloride) (hydrate or solvate)	240 °C (dec.)
N#Cc1c(N)nc(OCCOC(=O)[C@@H](N)Cc2ccccc2)c(C#N)c1-c1ccccc1 (as salt: hydrochloride) (hydrate or solvate) [Example 15, 2-[(2-amino-3,5-dicyano-4-phenylpyridin-6-yl)oxy]ethyl (S)-2-amino-3-phenylpropanoate monohydrochloride monohydrate]	161 to 162 °C
COc1nc(N)c(C#N)c(-c2ccc3cc[nH]c3c2)c1C#N (as salt: salt) (hydrate or solvate) [Example 171]	270 to 272 °C
CCN(CC)CCOc1ccc(-c2c(C#N)c(N)nc(OC)c2C#N)cc1.Cl (hydrate or solvate)	132 to 133 °C
COc1nc(N)c(C#N)c(-c2ccc(N)cc2)c1C#N.Cl.O (hydrate or solvate) [Example 20, 2-amino-(4-aminophenyl)-6-methoxypyridine-3,5-dicarbonitrile monohydrochloride monohydrate]	> 300 °C
COCC(=O)Nc1nc(OCC(F)F)c(C#N)c(-c2ccccc2F)c1C#N (hydrate or solvate) [Example 61, N-[3,5-dicyano-6-(2,2-difluoroethoxy)-4-(2-fluorophenyl)pyridin-2-yl]-2-metho xyacetamide]	108 to 109 °C
COc1nc(N)c(C#N)c(-c2ccccc2)c1C#N [Example 2]	251 to 252 °C
